# Target: T1, ROS1 (Homo sapiens, UniProt P08922)
# T1 construct: purchased Thermo Fisher Scientific (Life Technologies) SelectScreen
# Assay: SelectScreen Z'LYTE
# Type: biochemical
# How it was run: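 NU5455 was profiled across the SelectScreen Broad panel of kinase activity and binding assays. Z'LYTE reactions such as CSF1R ran at apparent Km ATP, while the Adapta CAMK1 assay used ATP listed as 10. Values are given as percent.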
# T1 sequence (P08922 28-2347): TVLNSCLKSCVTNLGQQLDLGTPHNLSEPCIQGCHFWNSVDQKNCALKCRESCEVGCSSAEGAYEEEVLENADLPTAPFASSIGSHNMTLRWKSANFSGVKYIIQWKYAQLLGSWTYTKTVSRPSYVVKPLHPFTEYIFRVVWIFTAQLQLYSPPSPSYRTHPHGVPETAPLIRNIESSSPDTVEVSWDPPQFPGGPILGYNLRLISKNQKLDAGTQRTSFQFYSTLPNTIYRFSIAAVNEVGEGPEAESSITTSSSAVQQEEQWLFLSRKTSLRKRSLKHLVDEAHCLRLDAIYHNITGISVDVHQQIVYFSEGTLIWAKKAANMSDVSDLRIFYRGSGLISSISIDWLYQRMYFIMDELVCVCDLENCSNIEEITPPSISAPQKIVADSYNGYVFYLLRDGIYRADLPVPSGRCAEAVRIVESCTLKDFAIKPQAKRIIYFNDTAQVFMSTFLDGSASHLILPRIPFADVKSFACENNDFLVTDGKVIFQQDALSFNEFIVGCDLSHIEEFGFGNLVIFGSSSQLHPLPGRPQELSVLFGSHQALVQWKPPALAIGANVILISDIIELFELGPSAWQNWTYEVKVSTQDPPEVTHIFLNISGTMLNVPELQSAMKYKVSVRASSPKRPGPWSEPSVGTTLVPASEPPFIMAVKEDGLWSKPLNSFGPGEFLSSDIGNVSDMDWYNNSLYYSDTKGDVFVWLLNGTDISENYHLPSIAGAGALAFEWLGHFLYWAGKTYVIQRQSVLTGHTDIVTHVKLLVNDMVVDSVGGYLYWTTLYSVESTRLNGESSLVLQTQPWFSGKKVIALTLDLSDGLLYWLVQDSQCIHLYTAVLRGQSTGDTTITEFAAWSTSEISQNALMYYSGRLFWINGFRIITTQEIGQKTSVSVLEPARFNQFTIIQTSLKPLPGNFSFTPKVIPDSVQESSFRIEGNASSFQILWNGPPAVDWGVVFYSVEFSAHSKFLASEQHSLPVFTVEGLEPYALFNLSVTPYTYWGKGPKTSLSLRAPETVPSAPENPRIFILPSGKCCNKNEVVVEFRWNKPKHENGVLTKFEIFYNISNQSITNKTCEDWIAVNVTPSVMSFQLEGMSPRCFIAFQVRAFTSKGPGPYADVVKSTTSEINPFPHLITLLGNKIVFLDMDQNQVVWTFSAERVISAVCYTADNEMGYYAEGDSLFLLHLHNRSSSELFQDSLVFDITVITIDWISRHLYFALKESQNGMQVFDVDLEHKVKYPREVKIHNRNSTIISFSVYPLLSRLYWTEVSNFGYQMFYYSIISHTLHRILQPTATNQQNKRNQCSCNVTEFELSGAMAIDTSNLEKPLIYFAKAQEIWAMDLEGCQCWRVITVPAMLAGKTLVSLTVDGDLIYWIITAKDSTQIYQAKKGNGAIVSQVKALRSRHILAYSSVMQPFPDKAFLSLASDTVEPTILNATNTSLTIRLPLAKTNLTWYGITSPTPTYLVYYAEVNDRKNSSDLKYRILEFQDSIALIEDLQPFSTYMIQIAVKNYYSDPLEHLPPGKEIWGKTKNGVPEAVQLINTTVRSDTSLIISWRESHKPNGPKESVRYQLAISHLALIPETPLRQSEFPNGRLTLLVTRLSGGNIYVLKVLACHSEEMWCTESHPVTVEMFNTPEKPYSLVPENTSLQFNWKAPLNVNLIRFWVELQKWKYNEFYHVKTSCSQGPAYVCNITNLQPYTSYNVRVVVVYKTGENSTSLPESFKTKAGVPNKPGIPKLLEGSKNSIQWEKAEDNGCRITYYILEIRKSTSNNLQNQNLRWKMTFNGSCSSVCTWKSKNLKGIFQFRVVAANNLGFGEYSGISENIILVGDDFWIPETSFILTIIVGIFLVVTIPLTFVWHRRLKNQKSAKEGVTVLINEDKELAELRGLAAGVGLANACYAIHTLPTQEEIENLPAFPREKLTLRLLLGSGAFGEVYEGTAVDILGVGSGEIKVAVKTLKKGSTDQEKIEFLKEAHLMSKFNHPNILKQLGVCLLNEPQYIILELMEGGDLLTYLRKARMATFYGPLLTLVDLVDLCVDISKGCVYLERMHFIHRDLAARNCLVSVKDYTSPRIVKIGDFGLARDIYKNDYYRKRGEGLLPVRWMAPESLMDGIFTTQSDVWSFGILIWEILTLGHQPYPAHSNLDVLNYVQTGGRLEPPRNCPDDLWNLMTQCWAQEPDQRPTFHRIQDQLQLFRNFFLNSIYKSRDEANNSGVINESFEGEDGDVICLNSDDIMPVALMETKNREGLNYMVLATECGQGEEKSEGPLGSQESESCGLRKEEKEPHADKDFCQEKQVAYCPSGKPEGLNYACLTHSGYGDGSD
smiles,measurement,value
CN(C(=O)CN1CCOCC1)c1ccc2sc3c(-c4cccc5c(=O)cc(N6CC7CCC(C6)O7)oc45)cccc3c2c1 [NU5455],inhibition at 1 µM,8%
